Source: article PMC8949375, “Design, Green Synthesis and Tailoring of Vitamin E TPGS Augmented Niosomal Nano-Carrier of Pyrazolopyrimidines as Potential Anti-Liver and Breast Cancer Agents with Accentuated Oral Bioavailability” (Pharmaceuticals, 2022)
Where two headings read alike, the source gives them in different places.

Assays:
HepG2 cell line = assay: MTT cytotoxicity assay, HepG2; format: cell-based; conditions: Homo sapiens
Text: (§1) The human HCC cell line, HEPG-2, was obtained from the American Type Culture Collection and used to evaluate the effects of the following drugs. MCF-7(ATCC® HTB-22TM, Manassas, VA, USA) breast cancer cells were derived from mammary gland or breast at a metastatic site. […] The human Caco-2 cell line, Caco-2, was obtained from the American Type Culture Collection and used to evaluate the effects of the following drugs. […], Manassas, VA, USA), epithelial-like lung carcinoma, was derived from lung tissue at a metastatic site. The human A549 cell line, A549, was obtained from the American Type Culture Collection and used to evaluate the effects of the following drugs. […] LLC., Burlington, VT, USA). Penicillin/streptomycin (Gibco®, Grand Island, NY, USA) was applied at 100 units/mL and 100 μg/mL, respectively. Growth inhibition was determined by classic MTT assay. In brief, HEPG2, A549, MCF-7 and Caco-2 cells were added to a cell culture MTT assay plate at a concentration of 5 × 10^3 cells/well in 1640 medium and cultured overnight. The different treatments were added on day 1 according to the calculated doses except on the control well and standard, then incubated for 24 h.

MCF-7 cell line = assay: MTT cytotoxicity assay, MCF-7; format: cell-based; conditions: Homo sapiens, MCF7, read-out: IC50 MCF-7 Breast Cancer
Text: as §1

CaCo-2 cell line = assay: MTT cytotoxicity assay, CaCo-2; format: cell-based; conditions: Homo sapiens, read-out: IC50 CaCo-2 Colon Cancer
Text: (§2) • HepG2 [HEPG2] (ATCC® HB-8065™, Manassas, VA, USA) epithelial hepatocellular carcinoma was derived from the liver tissue of a person (a well-differentiated hepatocellular carcinoma). The human HCC cell line, HEPG-2, was obtained from the American Type Culture Collection and used to evaluate the effects of the following drugs. MCF-7(ATCC® HTB-22™, Manassas, VA, USA) breast cancer cells were derived from mammary gland or breast at a metastatic site. The human MCF-7 cell line, MCF-7, was obtained from the American Type Culture Collection and used to evaluate the effects of the following drugs. • Caco 2 [Caco2] (ATCC® HTB 37™, Manassas, VA, USA) epithelial colorectal adenocarcinoma was derived from the colon at a metastatic site. The human Caco-2 cell line, Caco-2, was obtained from the American Type Culture Collection and used to evaluate the effects of the following drugs. A549 (ATCC® CCL-185™, Manassas, VA, USA), epithelial-like lung carcinoma, was derived from lung tissue at a metastatic site. The human A549 cell line, A549, was obtained from the American Type Culture Collection and used to evaluate the effects of the following drugs.
(§3) HEPG2, A549, MCF-7 and Caco-2 cells were maintained in a monolayer culture in a T-25 flask at 5% CO2 and 37 °C in DMEM (Lonza, Verviers, Belgium) and supplemented with 10% (v/v) FBS (Sigma-Aldrich Co. LLC., Burlington, VT, USA). Penicillin/streptomycin (Gibco®, Grand Island, NY, USA) was applied at 100 units/mL and 100 µg/mL, respectively.
(§4) Growth inhibition was determined by classic MTT assay. In brief, HEPG2, A549, MCF-7 and Caco-2 cells were added to a cell culture MTT assay plate at a concentration of 5 × 10^3 cells/well in 1640 medium and cultured overnight. The different treatments were added on day 1 according to the calculated doses except on the control well and standard, then incubated for 24 h. Measurement was achieved using a microplate reader (Model 550, Bio-Rad, Hercules, CA, USA).

A-549 cell line = assay: MTT cytotoxicity assay, A-549; format: cell-based; conditions: Homo sapiens, A549, read-out: IC50 A-549 Lung Carcinoma
Text: as §2, §3, §4

[1] = system: HepG2, MCF-7, A-549 and CaCo-2 cell lines; assay: MTT cytotoxicity assay, summary over all tested cell lines; format: cell-based, human; conditions: for IC50: Homo sapiens, range over compounds and cell lines, read-out: IC50 values versus all tested cell lines (collective range); for cytotoxic effect on the four cancer cell lines: in words
Text: as §2, §3, §4

[2] = system: VEGF protein expression level in HepG2 cell line; assay: VEGF ELISA in HepG2 cell culture supernatant; format: cell-based, human; design: concentration or dose not given beside the values; conditions: compared to control
Description: (§5) Total protein was assayed using the method described by Bradford. The VEGF ELISA Assay Kit (VEGF) and ELISA Kit, (#VGF31-[…]) were purchased from (Eagle Biosciences CO., LTD, Amherst, NH, USA). The kit is a sandwich enzyme immunoassay for the in vitro quantitative determination of VEGF concentrations in cell culture supernates, serum and plasma according to the manufacturer's instructions.

[3] = system: VEGF protein expression level in MCF-7 cell line; assay: VEGF ELISA in MCF-7 cell culture supernatant; format: cell-based, human; design: concentration or dose not given beside the values; conditions: MCF-7, ELISA, compared to control
Description: as §5

[4] = system: VEGFR-2 protein expression level in HepG2 cell line; assay: Human VEGF receptor-2 ELISA in HepG2; format: cell-based; design: concentration or dose not given beside the values; conditions: compared to control
Description: (§6) Total protein was assayed using the method described by Bradford. The Human VEGF receptor-2 ELISA Kit (ab213476), (96 tests) was purchased from (abcam®, Waltham, MA, USA). The kit is a sandwich enzyme immunoassay for the in vitro quantitative measurement of human VEGFR-2 in tissue homogenates, cell lysates and other biological fluids according to the manufacturer’s instructions.

[5] = system: VEGFR-2 protein expression level in MCF-7 cell line; assay: Human VEGF receptor-2 ELISA in MCF-7; format: cell-based; design: concentration or dose not given beside the values; conditions: MCF-7, ELISA, compared to control
Description: as §6

[6] = system: VEGF gene expression level in HepG2 cell line; assay: Real-time PCR of VEGF gene expression, HepG2; format: cell-based, human; conditions: HepG2, 3 days of treatment, compared to control, in words
Description: RT-PCR was applied to evaluate the VEGF gene expression level. Briefly, total RNA was extracted, and the extracted total RNA concentration was determined using a NanoDrop 2000 spectrophotometer (Thermo Fisher, Waltham, MA, USA). To determine the relative expression levels, the 2^−ΔΔCT method was used. NCBI/Primer Blast was used to define the primer sequences. The experiments were performed in quadruplicate. The primer sequences of VEGF and β-actin genes are listed below: […]

[7] = read-out: IC50 HepG2 Livercarcinoma

Cc1ccc(N=Nc2c(N)nn3c(C)c(N=Nc4cccc([N+](=O)[O-])c4)c(=O)[nH]c23)cc1 [Compound 4b, 2-Amino-7-methyl-6-((3-nitrophenyl)diazenyl)-3-(4-tolyldiazenyl)pyrazolo[1,5-a]pyrimidin-5(4H)-one]
IC50 (HepG2 cell line; [7]): 12.5 µM | IC50 (MCF-7 cell line): 25 µM | IC50 (CaCo-2 cell line): 15.4 µM | IC50 (A-549 cell line): 14 µM | IC50 [1]: 6 to 50 µM | VEGF 24 h % Inhibition [2]: 46% | VEGF 72 h % Inhibition [2]: 41.7% | VEGF 24 h % Inhibition [3]: 40% | VEGF 72 h % Inhibition [3]: 50% | VEGFR-2 24 h % Inhibition [4]: 42% | VEGFR-2 72 h % Inhibition [4]: 38.5% | VEGFR-2 24 h % Inhibition [5]: 50% | VEGFR-2 72 h % Inhibition [5]: 50% | VEGF gene expression level [6]: great inhibition | melting point: 228 to 230 °C

Cc1ccc(N=Nc2c(N)nn3c(N)c(N=Nc4cccc([N+](=O)[O-])c4)c(O)nc23)cc1 [Compound 2b, 2,7-diamino-6-((3-nitrophenyl)diazenyl)-3-(4-tolyldiazenyl)pyrazolo[1,5-a]pyrimidin-5-ol]
cytotoxic effect on the four cancer cell lines [1]: no cytotoxic effects even at high doses | melting point: 234 to 236 °C

Cc1ccc(N=Nc2c(N)nn3c(C)c(N=Nc4cccc([N+](=O)[O-])c4)c(C)nc23)cc1 [Compound 3b, 5,7-Dimethyl-6-((3-nitrophenyl)diazenyl)-3-(4-tolyldiazenyl)pyrazolo[1,5-a]pyrimidin-2-amine]
cytotoxic effect on the four cancer cell lines [1]: no cytotoxic effects even at high doses | melting point: 256 to 258 °C

Cc1ccc(N=Nc2c(N)nn3c(C)c(N=Nc4ccc(S(=O)(=O)N=C(N)N)cc4)c(=O)[nH]c23)cc1 [Compound 4a, 4-((2-Amino-7-methyl-5-oxo-3-(4-tolyldiazenyl)-4,5-dihydropyrazolo[1,5-a]pyrimidin-6-yl)diazenyl)-N-(diaminomethylene)benzenesulfonamide]
cytotoxic effect on the four cancer cell lines [1]: no cytotoxic effects even at high doses | melting point: 272 to 274 °C

Cc1ccc(N=Nc2c(N)nn3c2NC(=O)C(=NNc2ccc(S(=O)(=O)N=C(N)N)cc2)C3=O)cc1 [Compound 5, 4-(2-(2-Amino-5,7-Dioxo-3-(4-Tolyldiazenyl)-4,5-Dihydropyrazolo[1,5-a]Pyrimidin-6(7H)-Ylidene)Hydrazinyl)-N-(Diaminomethylene)Benzenesulfonamide]
cytotoxic effect on the four cancer cell lines [1]: no cytotoxic effects even at high doses | melting point: 278 to 280 °C

Cc1ccc(N=Nc2c(N)nn3c(N)c(N=Nc4ccc(S(=O)(=O)N=C(N)N)cc4)c(N)nc23)cc1 [Compound 7, N-(Diaminomethylene)-4-((2,5,7-Triamino-3-(4-Tolyldiazenyl)Pyrazolo[1,5-a]Pyrimidin-6-yl)Diazenyl)Benzenesulfonamide]
IC50 (HepG2 cell line; TPGS-coated vs uncoated niosomes vs pure compound, read-out: IC50 Hepg2 Liver Carcinoma): 6 µM | IC50 (HepG2 cell line; [7]): 6 µM | IC50 (MCF-7 cell line): 12 µM | IC50 (CaCo-2 cell line): 6 µM | IC50 (A-549 cell line): 12 µM | IC50 [1]: 6 to 50 µM | VEGF 24 h % Inhibition [2]: 51.5% | VEGF 72 h % Inhibition [2]: 70.3% | VEGF 24 h % Inhibition [3]: 50% | VEGF 72 h % Inhibition [3]: 62.5% | VEGFR-2 24 h % Inhibition [4]: 69.7% | VEGFR-2 72 h % Inhibition [4]: 72.3% | VEGFR-2 24 h % Inhibition [5]: 60% | VEGFR-2 72 h % Inhibition [5]: 62.5% | VEGF gene expression level [6]: best VEGF gene expression level downregulation | melting point: 264 to 266 °C

CNC(=O)c1cc(Oc2ccc(NC(=O)Nc3ccc(Cl)c(C(F)(F)F)c3)c(F)c2)ccn1 [Regorafenib, reference compound]
IC50 (HepG2 cell line; [7]): 3 µM | VEGF 24 h % Inhibition [2]: 70.8% | VEGF 72 h % Inhibition [2]: 75.4% | VEGFR-2 24 h % Inhibition [4]: 62% | VEGFR-2 72 h % Inhibition [4]: 55.6%

COc1ccc(-c2nc3c(N=Nc4ccc(C)cc4)c(N)nn3c(N)c2C#N)cc1 [Compound 6, 2,7-Diamino-5-(4-Methoxyphenyl)-3-(4-Tolyldiazenyl)Pyrazolo[1,5-a]Pyrimidine-6-Carbonitrile]
cytotoxic effect on the four cancer cell lines [1]: no cytotoxic effects even at high doses | melting point: 230 to 232 °C

Cc1ccc(N=Nc2c(N)nn3c(C)c(N=Nc4ccc(S(=O)(=O)N=C(N)N)cc4)c(C)nc23)cc1 [Compound 3a, 4-((2-Amino-5,7-dimethyl-3-(4-tolyldiazenyl)pyrazolo[1,5-a]pyrimidin-6-yl)diazenyl)-N-(diaminomethylene)benzenesulfonamide]
cytotoxic effect on the four cancer cell lines [1]: no cytotoxic effects even at high doses | melting point: 250 to 252 °C

Cc1ccc(N=Nc2c(N)n[nH]c2N)cc1 [Compound 1, 4-(p-tolyldiazenyl)-1H-pyrazole-3,5-diamine]
IC50 (HepG2 cell line; [7]): 20 µM | IC50 (MCF-7 cell line): 50 µM | IC50 (CaCo-2 cell line): 18.2 µM | IC50 (A-549 cell line): 15.1 µM | IC50 [1]: 6 to 50 µM | VEGF 24 h % Inhibition [2]: 23% | VEGF 72 h % Inhibition [2]: 33.3% | VEGF 24 h % Inhibition [3]: 20% | VEGF 72 h % Inhibition [3]: 50% | VEGFR-2 24 h % Inhibition [4]: 52.6% | VEGFR-2 72 h % Inhibition [4]: 38.5% | VEGFR-2 24 h % Inhibition [5]: 33.3% | VEGFR-2 72 h % Inhibition [5]: 50%

CNC(=O)c1cc(Oc2ccc(NC(=O)Nc3ccc(Cl)c(C(F)(F)F)c3)cc2)ccn1 [Sorafenib, reference compound]
IC50 (HepG2 cell line; [7]): 6 µM

CO[C@H]1C[C@@H]2CC[C@@H](C)[C@@](O)(O2)C(=O)C(=O)N2CCCC[C@H]2C(=O)O[C@H]([C@H](C)C[C@@H]2CC[C@@H](OCCO)[C@H](OC)C2)CC(=O)[C@H](C)/C=C(\C)[C@@H](O)[C@@H](OC)C(=O)[C@H](C)C[C@H](C)/C=C/C=C/C=C/1C [Everolimus, reference compound]
IC50 (MCF-7 cell line): 3 µM | VEGF 24 h % Inhibition [3]: 50% | VEGF 72 h % Inhibition [3]: 62.5% | VEGFR-2 24 h % Inhibition [5]: 40% | VEGFR-2 72 h % Inhibition [5]: 50%
